Measurements: paper PMC11094307, “Marine-derived EGFR inhibitors: novel compounds targeting breast cancer growth and drug resistance” (Frontiers in Pharmacology, 2024)
Like-named read-outs stand apart in the source and are kept apart here.

Experiments:
MCF-7 cells = assay: MTT assay, MCF-7 growth inhibition; format: cell-based, human; details: Homo sapiens, read-out: EC50, MCF-7 cell viability
Procedure: Both mediums were enriched with 10% fetal bovine serum and 1% penicillin/streptomycin.
Cells in the exponential growth phase were seeded into 96-well plates and allowed to adhere overnight. […] After 24 h, 20 µL of Methyl-thiazolyldiphenyl-tetrazolium bromide (MTT, 5 mg/mL, Thermo Fisher Scientific) was added to each well and incubated for a minimum of 4 h. Following the incubation, the medium containing the compounds and MTT was removed from each well, and 200 µL of dimethyl sulfoxide (DMSO) was added.
(§1) All experiments were repeated at least three times, and the data are presented as mean ± standard deviation (SD). The statistical analyses were performed using Origin. EC50 or IC50 values were obtained by fitting the data to a four-parameter Hill model of the graph of log dose against percentage cell viability or inhibition from at least three sets of experiments. Difference between two groups were analyzed by Student’s t test (two-sided) and significance was set at p < 0.05. The specific details about statistical methods are introduced in respective figure legends.

EGFR T790M = molecular target: T1, EGFR T790M (Homo sapiens, UniProt P00533, T790M); assay: Kinase inhibition assay (ADP-Glo, Promega); format: biochemical
T1 construct: purchased Promega Corporation, USA
T1 sequence (P00533 25-1210 T790M): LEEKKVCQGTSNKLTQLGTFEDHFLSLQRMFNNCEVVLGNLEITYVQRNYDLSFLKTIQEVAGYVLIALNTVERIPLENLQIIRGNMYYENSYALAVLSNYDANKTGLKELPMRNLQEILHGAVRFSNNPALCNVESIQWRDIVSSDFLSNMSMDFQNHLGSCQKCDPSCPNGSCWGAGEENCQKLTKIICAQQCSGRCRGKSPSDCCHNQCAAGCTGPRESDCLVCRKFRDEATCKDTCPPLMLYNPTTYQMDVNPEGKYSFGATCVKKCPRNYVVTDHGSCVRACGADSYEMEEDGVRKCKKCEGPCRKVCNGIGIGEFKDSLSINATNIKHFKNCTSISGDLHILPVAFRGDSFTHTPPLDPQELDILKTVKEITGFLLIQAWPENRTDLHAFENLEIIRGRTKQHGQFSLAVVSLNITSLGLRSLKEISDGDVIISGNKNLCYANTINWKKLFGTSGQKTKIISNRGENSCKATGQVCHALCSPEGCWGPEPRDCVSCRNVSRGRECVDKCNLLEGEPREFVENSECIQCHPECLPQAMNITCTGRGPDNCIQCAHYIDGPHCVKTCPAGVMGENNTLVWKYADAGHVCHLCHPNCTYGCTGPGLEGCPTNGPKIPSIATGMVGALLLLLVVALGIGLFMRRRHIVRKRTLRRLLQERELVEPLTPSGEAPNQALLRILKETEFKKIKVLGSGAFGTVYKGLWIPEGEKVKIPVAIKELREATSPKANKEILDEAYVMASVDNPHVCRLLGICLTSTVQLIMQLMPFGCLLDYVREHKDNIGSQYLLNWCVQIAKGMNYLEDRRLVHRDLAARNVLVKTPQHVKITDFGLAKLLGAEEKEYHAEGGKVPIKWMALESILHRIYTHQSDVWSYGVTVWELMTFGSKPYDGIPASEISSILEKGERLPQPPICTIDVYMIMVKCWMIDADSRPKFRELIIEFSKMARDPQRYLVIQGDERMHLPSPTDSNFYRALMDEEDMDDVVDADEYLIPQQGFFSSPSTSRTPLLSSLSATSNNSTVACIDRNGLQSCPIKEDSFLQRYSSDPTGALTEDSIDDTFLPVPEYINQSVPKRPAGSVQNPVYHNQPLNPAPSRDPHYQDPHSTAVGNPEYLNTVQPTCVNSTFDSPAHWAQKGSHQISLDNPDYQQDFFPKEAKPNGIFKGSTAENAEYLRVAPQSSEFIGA
Procedure: (§2) The extracellular ligand-binding domain of EGFR, tagged with His, and the intracellular tyrosine kinase (TK) domain of EGFR, tagged with GST, were acquired from Sinobiological, China. […] Cell lines including MCF-7, A549, A431, H1299, HL-60, and MCF-10A were obtained from the China Infrastructure Cell Line Resources.
(§3) The experiments were conducted in accordance with the manufacturer’s guidelines (Promega). The procedure began with a kinase reaction, where 5 μL of 1× kinase buffer was utilized, and the mixture was incubated at room temperature for 60 min. This step was followed by the addition of 5 μL of ADP-Glo™ reagent to terminate the kinase reaction and to deplete any remaining ATP, with a subsequent incubation period of 40 min at room temperature. Next, 10 μL of kinase detection reagent was added to convert ADP back into ATP, and luciferase along with luciferin was introduced to facilitate ATP detection. This mixture was then incubated at room temperature for an additional 30 min. Detection was carried out using a BioTek Synergy4 instrument, and data analysis, including curve fitting and presentation, was performed using GraphPad Prism version 5.0.
as §1

WT EGFR = molecular target: T2, WT EGFR (Homo sapiens, UniProt P00533); assay: Kinase inhibition assay (ADP-Glo, Promega); format: biochemical; details: in vitro kinase assay
T2 construct: purchased Promega Corporation, USA
T2 sequence (P00533 25-1210): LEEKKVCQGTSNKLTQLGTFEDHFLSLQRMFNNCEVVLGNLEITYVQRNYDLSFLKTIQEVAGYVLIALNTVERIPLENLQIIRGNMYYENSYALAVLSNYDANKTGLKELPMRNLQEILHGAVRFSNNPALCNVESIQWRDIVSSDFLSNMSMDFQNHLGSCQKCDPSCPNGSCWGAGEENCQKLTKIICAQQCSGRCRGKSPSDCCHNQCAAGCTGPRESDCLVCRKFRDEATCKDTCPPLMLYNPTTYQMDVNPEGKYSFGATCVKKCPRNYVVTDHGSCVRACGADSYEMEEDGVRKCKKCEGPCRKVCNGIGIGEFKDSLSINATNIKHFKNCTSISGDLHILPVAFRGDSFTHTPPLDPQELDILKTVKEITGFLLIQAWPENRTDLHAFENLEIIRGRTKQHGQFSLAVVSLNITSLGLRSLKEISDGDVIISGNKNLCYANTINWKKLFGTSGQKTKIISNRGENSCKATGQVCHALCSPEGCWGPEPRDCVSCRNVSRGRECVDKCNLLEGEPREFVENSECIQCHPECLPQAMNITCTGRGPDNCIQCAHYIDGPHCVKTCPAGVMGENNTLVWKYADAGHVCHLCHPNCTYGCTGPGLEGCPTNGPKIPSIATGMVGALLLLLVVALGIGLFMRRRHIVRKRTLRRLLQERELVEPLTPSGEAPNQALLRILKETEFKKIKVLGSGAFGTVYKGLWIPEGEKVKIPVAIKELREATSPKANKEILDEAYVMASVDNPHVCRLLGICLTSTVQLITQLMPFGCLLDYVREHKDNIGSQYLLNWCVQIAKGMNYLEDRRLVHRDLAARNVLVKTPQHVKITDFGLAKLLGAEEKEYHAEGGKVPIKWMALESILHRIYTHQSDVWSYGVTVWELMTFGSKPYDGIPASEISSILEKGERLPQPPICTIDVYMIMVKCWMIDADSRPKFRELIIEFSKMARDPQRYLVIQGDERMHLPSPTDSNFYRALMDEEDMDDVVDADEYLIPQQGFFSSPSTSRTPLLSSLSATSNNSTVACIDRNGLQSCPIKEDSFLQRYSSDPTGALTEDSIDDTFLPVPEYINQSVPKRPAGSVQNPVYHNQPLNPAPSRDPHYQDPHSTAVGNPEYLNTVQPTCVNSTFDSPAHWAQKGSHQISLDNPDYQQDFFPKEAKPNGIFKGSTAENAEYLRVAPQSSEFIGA
Procedure: as §2, §3, §1

[1] = molecular target: T3, EGFR extracellular ligand binding domain (Homo sapiens, UniProt P00533); assay: SPR binding (Biacore 8K)
T3 construct: His; purchased Sinobiological, China
T3 sequence (P00533 25-645 limits assumed): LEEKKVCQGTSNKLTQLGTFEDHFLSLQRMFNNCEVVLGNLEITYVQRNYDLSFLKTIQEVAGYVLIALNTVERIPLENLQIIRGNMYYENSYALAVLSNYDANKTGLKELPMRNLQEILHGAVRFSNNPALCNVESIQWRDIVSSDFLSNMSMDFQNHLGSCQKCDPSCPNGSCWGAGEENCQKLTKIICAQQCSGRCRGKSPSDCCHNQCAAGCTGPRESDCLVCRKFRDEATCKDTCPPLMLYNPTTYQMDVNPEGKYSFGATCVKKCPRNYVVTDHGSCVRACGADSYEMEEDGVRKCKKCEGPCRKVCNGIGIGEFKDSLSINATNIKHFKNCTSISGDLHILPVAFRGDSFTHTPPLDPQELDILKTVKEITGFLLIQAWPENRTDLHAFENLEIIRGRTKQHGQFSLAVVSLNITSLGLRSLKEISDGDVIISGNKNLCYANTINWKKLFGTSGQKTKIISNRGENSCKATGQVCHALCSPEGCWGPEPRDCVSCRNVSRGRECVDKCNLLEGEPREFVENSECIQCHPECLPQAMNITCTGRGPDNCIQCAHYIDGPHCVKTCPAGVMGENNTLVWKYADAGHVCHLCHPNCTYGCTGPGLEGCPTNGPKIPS
From the text: (§4) The extracellular ligand-binding domain of EGFR, tagged with His, and the intracellular tyrosine kinase (TK) domain of EGFR, tagged with GST, were acquired from Sinobiological, China. Kinase assay systems for both wild-type EGFR and its mutants—T790M, L858R, and the dual L858R/T790M—were procured from Promega Corporation, USA. Cell lines including MCF-7, A549, A431, H1299, HL-60, and MCF-10A were obtained from the China Infrastructure Cell Line Resources.
(§5) The binding affinities of compounds towards EGFR extracellular ligand binding domain and EGFR intracellular kinase domain were assayed using the SPR-based Biacore 8K instrument (Cytiva). Considering the purchased EGFR was fused with GST tag, GST alone was also immobilized on the chip to do the binding measurement. All the proteins were respectively immobilized on a CM5 sensor chip by using standard amine-coupling at 25°C with running buffer HEPES-P (20 mM HEPES buffer, […], 0.05% surfactant P20, pH 7.4). A reference channel was only activated and blocked to eliminate compound unspecific binding to the surface of the chip. The immobilization level of EGFR extracellular ligand binding domain, EGFR intracellular kinase domain and GST were all about 10,000 RU. […] Extra wash with 50% DMSO was added to remove the last remaining sample in the pipeline.

[2] = molecular target: T4, EGFR intracellular kinase domain (Homo sapiens, UniProt P00533); assay: SPR ATP competition experiments (1 mM ATP); details: in the presence of ATP, Figure S6
T4 sequence (P00533 712-979 limits assumed): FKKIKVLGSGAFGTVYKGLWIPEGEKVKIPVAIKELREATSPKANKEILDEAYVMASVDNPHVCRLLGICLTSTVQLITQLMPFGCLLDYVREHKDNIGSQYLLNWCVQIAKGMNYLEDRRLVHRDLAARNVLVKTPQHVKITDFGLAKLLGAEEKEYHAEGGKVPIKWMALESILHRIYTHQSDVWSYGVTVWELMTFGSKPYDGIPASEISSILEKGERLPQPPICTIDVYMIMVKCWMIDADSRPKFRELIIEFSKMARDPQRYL

[3] = molecular target: T4, EGFR intracellular kinase domain; assay: SPR binding (Biacore 8K); design: the intracellular tyrosine kinase (TK) domain of EGFR, tagged with GST; purchased Sinobiological, China; details: without ATP
From the text: as §4, §5

EGFR L858R = molecular target: T5, EGFR L858R (Homo sapiens, UniProt P00533, L858R); assay: Kinase inhibition assay (ADP-Glo, Promega); format: biochemical
T5 construct: purchased Promega Corporation, USA
T5 sequence (P00533 25-1210 L858R): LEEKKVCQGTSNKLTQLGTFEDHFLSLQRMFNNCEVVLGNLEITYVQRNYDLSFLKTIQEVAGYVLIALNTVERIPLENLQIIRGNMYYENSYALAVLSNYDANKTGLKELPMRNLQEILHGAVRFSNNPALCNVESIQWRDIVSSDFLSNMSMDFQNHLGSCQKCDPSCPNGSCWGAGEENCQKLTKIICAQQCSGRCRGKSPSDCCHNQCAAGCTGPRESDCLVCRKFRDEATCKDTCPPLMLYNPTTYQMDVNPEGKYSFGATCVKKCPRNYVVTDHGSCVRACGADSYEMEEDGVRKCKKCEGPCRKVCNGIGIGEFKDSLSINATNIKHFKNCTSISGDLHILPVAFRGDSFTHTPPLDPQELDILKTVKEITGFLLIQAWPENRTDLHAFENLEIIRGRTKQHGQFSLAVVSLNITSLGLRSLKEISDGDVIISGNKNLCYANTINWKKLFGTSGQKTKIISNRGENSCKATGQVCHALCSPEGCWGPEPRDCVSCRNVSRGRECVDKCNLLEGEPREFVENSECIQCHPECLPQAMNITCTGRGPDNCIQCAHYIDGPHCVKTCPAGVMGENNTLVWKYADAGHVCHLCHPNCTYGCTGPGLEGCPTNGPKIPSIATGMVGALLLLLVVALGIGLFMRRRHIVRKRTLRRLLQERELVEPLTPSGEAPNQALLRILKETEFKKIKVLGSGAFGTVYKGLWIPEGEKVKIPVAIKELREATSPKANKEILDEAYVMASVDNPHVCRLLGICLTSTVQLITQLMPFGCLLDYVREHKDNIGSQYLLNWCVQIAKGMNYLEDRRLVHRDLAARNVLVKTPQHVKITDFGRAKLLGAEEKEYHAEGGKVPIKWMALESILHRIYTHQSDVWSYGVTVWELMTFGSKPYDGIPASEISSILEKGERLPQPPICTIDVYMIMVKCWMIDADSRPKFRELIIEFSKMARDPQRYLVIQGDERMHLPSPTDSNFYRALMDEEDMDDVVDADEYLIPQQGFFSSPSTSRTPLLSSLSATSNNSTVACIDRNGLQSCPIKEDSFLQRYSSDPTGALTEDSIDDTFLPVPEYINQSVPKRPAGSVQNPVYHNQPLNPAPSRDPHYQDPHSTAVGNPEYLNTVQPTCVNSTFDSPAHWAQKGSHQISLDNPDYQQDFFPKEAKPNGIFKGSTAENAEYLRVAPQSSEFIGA
Procedure: as §2, §3, §1

EGFR L858R/T790M = molecular target: T6, EGFR L858R/T790M (Homo sapiens, UniProt P00533, L858R/T790M); assay: Kinase inhibition assay (ADP-Glo, Promega); format: biochemical
T6 construct: purchased Promega Corporation, USA
Procedure: as §2, §3, §1

[4] = molecular target: T3, EGFR extracellular ligand binding domain; assay: SPR EGF competition experiments; details: for kon: read-out: ka
From the text: The protocol fixed the pre-flank contact time, analyte contact time, and post-flank contact time at 60 s, 60 s, and 120 s, respectively.

Compound	Kd [1]	binding to kinase domain of EGFR [2]	Kd [3]	EC50 (MCF-7 cells; MCF7, 24 h)	IC50 (EGFR L858R)	IC50 (EGFR L858R/T790M)	IC50 (EGFR T790M)	IC50 (WT EGFR; IC50 against WT EGFR)	further results
CC[C@@H](C)[C@H]1C=C[C@H]2[C@H](OC(=O)/C=C(\C)CC(=O)OC)[C@H](O)C[C@@H](C)[C@@H]2[C@@]1(C)C(=O)CCO [Tandyukisin B]	30 µM	hardly bind	7.02 µM	–	–	–	–	–	EC50 (MCF-7 cells; MCF7, MTT, 24 h): 9.2 ± 1.2 µM; IC50 (EGFR T790M; in vitro kinase assay, read-out: IC50 against EGFR T790M): 0.0373 ± 0.0001 µM; IC50 (WT EGFR; read-out: IC50 against WT EGFR): 0.0147 ± 0.0011 µM
CC[C@@H](C)[C@H]1C=C[C@H]2[C@H](OC(=O)C/C(C)=C\C(=O)O)[C@H](O)C[C@@H](C)[C@@H]2[C@@]1(C)C(=O)CCO [Tandyukisin C]	55.1 µM	hardly bind	6.56 µM	8.7 ± 1 µM	0.003 ± 0.0002 µM	0.156 ± 0.004 µM	0.0297 ± 0.0001 µM	0.0126 ± 0.0001 µM	–
CC[C@@H](C)[C@H]1C=C[C@H]2[C@H](O)[C@H](OC(=O)/C=C(\C)CC(=O)O)C[C@@H](C)[C@@H]2[C@@]1(C)C(=O)CCO [Trichoharzin]	7.98 µM	–	6.34 µM	4.8 ± 0.4 µM	0.0028 ± 0.0006 µM	0.0855 ± 0.0277 µM	0.032 ± 0.0005 µM	0.0119 ± 0.0001 µM	kon ([1]; Figure 4C-D, read-out: ka, EGFR ligand binding domain): 1810 M⁻¹ s⁻¹; folds weaker than binding alone ([4]; EGF 2.5 nM): 3.3 fold; Kd ([4]; EGF 2.5 nM, Figure 4H, read-out: KD): 26.2 µM; kon ([4]; EGF 2.5 nM, Figure 4H): 1030 M⁻¹ s⁻¹; folds weaker than binding alone ([4]; EGF 10 nM): 5.1 fold; Kd ([4]; EGF 10 nM, Figure 4I, read-out: KD): 40.6 µM; kon ([4]; EGF 10 nM, Figure 4I): 552 M⁻¹ s⁻¹; folds weaker than binding alone ([4]; EGF 20 nM): 7.0 fold; Kd ([4]; EGF 20 nM, Figure 4J, read-out: KD): 56.2 µM; kon ([4]; EGF 20 nM, Figure 4J): 374 M⁻¹ s⁻¹; inhibition of EGF-EGFR interaction ([4]; SPR, concentration-dependent, 125-500 μM): significantly inhibiting; Kd ([4]; in the presence of EGF 2.5 nM, read-out: KD for EGFR extracellular ligand binding domain): 26.2 µM; Kd ([4]; in the presence of EGF 10 nM, read-out: KD for EGFR extracellular ligand binding domain): 40.6 µM; Kd ([4]; in the presence of EGF 20 nM, read-out: KD for EGFR extracellular ligand binding domain): 56.2 µM; kon ([3]; Figure 4A-B, read-out: ka, EGFR kinase domain): 8040 M⁻¹ s⁻¹
